Like-named read-outs stand apart in the source and are kept apart here.
Columns and labels:
MV-4-11 cells = assay: Inhibition of MV-4-11 cell proliferation (MTS, 7 days); format: cell-based
Procedure, shortened: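 Measured at 2,000 cells per well in IMDM with 10% FBS, five-fold compound dilutions, 0.2% DMSO final, 7 days at 37° C, 5% CO2. MTS added for 3-4 hours; signal as OD490-OD690. IC50 from three repeated experiments, each in triplicate.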

MM.1S cells = assay: Effect of the compound on MM.1S cell proliferation (MTS, 7 days); format: cell-based
Procedure, shortened: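 MM.1S cells (20,000/well in RPMI 1640 with 10% FBS) were exposed to a 5-step compound dilution series (0.2% DMSO final) for 7 days at 37 °C, 5% CO2. MTS readout used OD490 minus OD690 after 3–4 h, and IC50 was fitted from three independent repeats.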

[1] = Mouse pharmacokinetic experiment, oral gavage; format: in vivo; conditions: ICR mice, female, oral gavage 20 mg/kg, plasma
Experimental: Mouse Pharmacokinetic Experimental Scheme ICR mice, female, 18-22 g, randomly divided into groups with 4 mice per group. The test compounds were administered by oral gavage at a dose volume of 10 mL/kg. The oral solution was prepared using DMSO/PEG-400/water (5:30:65, v/v/v). Mice were fasted for 12 hours prior to the experiment with free access to water. After drug administration, they were allowed to eat uniformly at 2 hours post-dose. The test compounds (20 mg/kg) were orally administered to 4 mice. Blood samples (50 μL) were collected from the orbital vein at the following time points: 5 min, 15 min, 30 min, 1 h, 2 h, 4 h, 6 h, and 24 h. The blood was centrifuged at 12,000 rpm for 2 minutes to separate plasma, which was then stored at −20° C. for blood concentration measurement.

Mino cells = assay: Inhibition of cell proliferation of Mino cells (MTS, 3 days); format: cell-based
Procedure, shortened: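 Mino cells in RPMI-1640 with 15% FBS were seeded at 8000 cells/well and treated with 5-fold compound dilutions (final DMSO 0.2%) for 3 days at 37° C. Viability was measured by MTS as OD490−OD690 after 3-4 h. IC50 was fitted from inhibition relative to DMSO and blank, in three repeat experiments.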

[2] = Homo sapiens, MV4-11, 168 h, 7 days, MTS, Table 3, read-out: MV-4-11 Cells Inhibition Activity IC50
[3] = Homo sapiens, MM1.S, 168 h, 7 days, MTS, Table 1, read-out: MM.1S Cells Inhibition Activity IC50
[4] = Homo sapiens, MINO, 72 h, 3 days, MTS, Table 2, read-out: Mino Cells Inhibition Activity IC50
[5] = 7 days, MTS, Table 3, read-out: MV-4-11 Cells Inhibition Activity IC50
[6] = 7 days, MTS, Table 1, read-out: MM.1S Cells Inhibition Activity IC50
[7] = 3 days, MTS, Table 2, read-out: Mino Cells Inhibition Activity IC50
[8] = Homo sapiens, MV4-11, Table 4, values in nM, read-out: Inhibitory Activity of Compounds on Cell Proliferation MV-4-11 IC50
[9] = Homo sapiens, MM1.S, Table 4, read-out: Inhibitory Activity of Compounds on Cell Proliferation MM.1S IC50
[10] = Homo sapiens, MINO, Table 4, read-out: Inhibitory Activity of Compounds on Cell Proliferation Mino IC50
[11] = Homo sapiens, MV4-11, Table 4, values in μM, read-out: Inhibitory Activity of Compounds on Cell Proliferation MV-4-11 IC50
[12] = Homo sapiens, MV4-11, positive compounds, read-out: IC50 in MV-4-11 acute leukemia cells

Compound | IC50 (MV-4-11 cells; [2]) | IC50 (MM.1S cells; [3]) | IC50 (MM.1S cells; [9]) | IC50 (Mino cells; [4]) | IC50 (Mino cells; [10]) | other results
[2H]c1c([2H])c([2H])c(-c2ncc(CNc3cccc4c3C(=O)N(C3CCC(=O)NC3=O)C4=O)o2)c([2H])c1[2H] (stereo not shown) [Example 45] | < 1000 nM | 15 to 30 nM | – | < 60 nM | – | AUC(0-t) [1]: > 10000 ng·h/mL; Cmax [1]: > 2000 ng/mL
O=C1CCC(N2C(=O)c3cccc(NCc4cnc(-c5ccccc5Cl)o4)c3C2=O)C(=O)N1 (stereo not shown) [Example 92, 4-(((2-(2-Chlorophenyl)oxazol-5-yl)methyl)amino)-2-(2,6-Dioxopiperidine-3-yl)isoindoline-1,3-dione] | – | – | – | – | – | IC50 (MV-4-11 cells; [5]): < 1000 nM; IC50 (MM.1S cells; [6]): < 15 nM; IC50 (Mino cells; [7]): > 120 nM
O=C1CCC(N2C(=O)c3cccc(NCc4cnc(-c5ccc(F)cc5)o4)c3C2=O)C(=O)N1 (stereo not shown) [Example 93, 2-(2,6-Dioxopiperidine-3-yl)-4-(((2-(4-Fluorophenyl)oxazol-5-yl)methyl)amino)isoindoline-1,3-dione] | – | – | – | – | – | IC50 (MV-4-11 cells; [5]): < 1000 nM; IC50 (MM.1S cells; [6]): < 15 nM; IC50 (Mino cells; [7]): < 60 nM
O=C1CCC(N2C(=O)c3cccc(NCc4ncc(-c5ccccc5F)o4)c3C2=O)C(=O)N1 (stereo not shown) [Example 95, 2-(2,6-Dioxopiperidine-3-yl)-4-(((5-(2-Fluorophenyl)oxazol-2-yl)methyl)amino)isoindoline-1,3-dione] | > 20000 nM | 30 to 150 nM | – | > 120 nM | – | –
O=C1CCC(N2C(=O)c3cccc(NCc4nnc(-c5ccccc5)o4)c3C2=O)C(=O)N1 (stereo not shown) [Example 98, 2-(2,6-Dioxopiperidine-3-yl)-4-(((5-Phenyl-1,3,4-oxadiazol-2-yl)methyl)amino)isoindoline-1,3-dione] | 1000 to 20000 nM | 15 to 30 nM | – | > 120 nM | – | –
O=C1CCC(N2C(=O)c3cccc(NCc4nnc(-c5ccccc5)s4)c3C2=O)C(=O)N1 (stereo not shown) [Example 99, 2-(2,6-Dioxopiperidine-3-yl)-4-(((5-Phenyl-1,3,4-thiadiazol-2-yl)methyl)amino)isoindoline-1,3-dione] | 1000 to 20000 nM | 30 to 150 nM | – | > 120 nM | – | –
COCCOc1ccc(-c2ncc(CNc3cccc4c3C(=O)N(C3CCC(=O)NC3=O)C4=O)s2)cc1 (stereo not shown) [Example 104] | < 1000 nM | 15 to 30 nM | – | > 120 nM | – | –
O=C1CCC(N2C(=O)c3cccc(NCc4cnc([C@H]5CC[C@@H](Cc6ccc(F)cc6)CC5)o4)c3C2=O)C(=O)N1 (stereo partly drawn) [Example 105, 2-(2,6-Dioxopiperidine-3-yl)-4-(((2-((1S,4S)-4-(4-Fluorobenzyl)cyclohexyl)oxazol-5-yl)methyl)amino)isoindoline-1,3-dione] | 1000 to 20000 nM | > 150 nM | – | > 120 nM | – | –
O=C1CCC(N2C(=O)c3cccc(NCc4cnc([C@H]5CC[C@H](Cc6ccc(F)cc6)CC5)o4)c3C2=O)C(=O)N1 (stereo partly drawn) [Example 106, 2-(2,6-Dioxopiperidine-3-yl)-4-(((2-((1R,4R)-4-(4-Fluorobenzyl)cyclohexyl)oxazol-5-yl)methyl)amino)isoindoline-1,3-dione] | < 1000 nM | 30 to 150 nM | – | > 120 nM | – | –
CC(C)(C)C(=O)N1CCC(c2ncc(CNc3cccc4c3CN(C3CCC(=O)NC3=O)C4=O)o2)CC1 (stereo not shown) [Example Ctrl-1, 3-(1-oxo-4-(((2-(1-pivaloylpiperidin-4-yl)oxazol-5-yl)methyl)amino)isoindolin-2-yl)piperidine-2,6-dione, reference compound] | – | – | 420 nM | – | > 20000 nM | IC50 (MV-4-11 cells; [8]): 14400 nM
O=C1CCC(N2Cc3c(NCc4cn(-c5ccc(Cl)cc5)nn4)cccc3C2=O)C(=O)N1 (stereo not shown) [Example Ctrl-4, reference compound] | – | – | > 15 nM | – | > 5000 nM | IC50 (MV-4-11 cells; [8]): > 20000 nM
Nc1cccc2c1CN(C1CCC(=O)NC1=O)C2=O (stereo not shown) [Lenalidomide, reference compound] | > 20000 nM | 30 to 150 nM | – | > 120 nM | – | IC50 (MV-4-11 cells; [12]): > 20000 nM
Nc1cccc2c1C(=O)N(C1CCC(=O)NC1=O)C2=O (stereo not shown) [Pomalidomide, reference compound] | > 20000 nM | 30 to 150 nM | – | > 120 nM | – | IC50 (MV-4-11 cells; [12]): > 20000 nM
O=C1CCC(N2Cc3c(NCc4cnc(-c5ccc(OC(F)(F)F)cc5)o4)cccc3C2=O)C(=O)N1 (stereo not shown) [Prior Art Disclosed Compound-1, reference compound] | – | – | > 20 nM | – | > 4800 nM | IC50 (MV-4-11 cells; [8]): > 20000 nM
O=C1CCC(N2Cc3c(CCc4cnc(-c5ccc(OC(F)(F)F)cc5)o4)cccc3C2=O)C(=O)N1 (stereo not shown) [Prior Art Disclosed Compound-2, reference compound] | – | – | 73 nM | – | 800 nM | IC50 (MV-4-11 cells; [8]): > 20000 nM
O=C1CCC(N2C(=O)c3cccc(OCc4cn(-c5ccc(OC(F)(F)F)cc5)nn4)c3C2=O)C(=O)N1 (stereo not shown) [Prior Art Disclosed Compound-3, reference compound] | – | – | > 20000 nM | – | 680 nM | IC50 (MV-4-11 cells; [8]): > 20000 nM
O=C1CCC(N2Cc3c(OCC4CCN(c5ccc(OC(F)(F)F)cc5)CC4)cccc3C2=O)C(=O)N1 (stereo not shown) [Prior Art Disclosed Compound-4, reference compound] | – | – | > 41 nM | – | 7500 nM | IC50 (MV-4-11 cells; [8]): > 10000 nM

More lines, main results first:

IC50 (MV-4-11 cells; [2]) | IC50 (MM.1S cells; [3]) | IC50 (MM.1S cells; [9]) | Compound | IC50 (Mino cells; [4]) | IC50 (Mino cells; [10]) | other results
< 1000 nM | < 15 nM | – | O=C1CCC(N2C(=O)c3cccc(NCc4cnc(-c5ccccc5)o4)c3C2=O)C(=O)N1 (stereo not shown) [Example 22] | < 60 nM | – | AUC(0-t) [1]: > 10000 ng·h/mL; Cmax [1]: > 2000 ng/mL
< 1000 nM | < 15 nM | – | O=C1CCC(N2C(=O)c3cccc(NCc4cnc(-c5ccc(C(F)(F)F)cc5)s4)c3C2=O)C(=O)N1 (stereo not shown) [Example 37] | < 60 nM | – | AUC(0-t) [1]: > 10000 ng·h/mL; Cmax [1]: > 2000 ng/mL
< 1000 nM | < 15 nM | – | O=C1CCC(N2C(=O)c3cccc(NCc4cnc(-c5ccc(OC6CC6)cc5)o4)c3C2=O)C(=O)N1 (stereo not shown) [Example 51, 4-(((2-(4-Cyclopropoxyphenyl)oxazol-5-yl)methyl)amino)-2-(2,6-Dioxopiperidin-3-yl)isoindolin-1,3-dione] | < 60 nM | – | AUC(0-t) [1]: > 10000 ng·h/mL; Cmax [1]: > 2000 ng/mL
< 1000 nM | < 15 nM | – | O=C1CCC(N2C(=O)c3cccc(NCc4cnc(-c5cccc(OC6CC6)c5)o4)c3C2=O)C(=O)N1 (stereo not shown) [Example 96, 4-(((2-(Cyclopropoxyphenyl)oxazol-5-yl)methyl)amino)-2-(2,6-Dioxopiperidine-3-yl)isoindoline-1,3-dione] | > 120 nM | – | –
1000 to 20000 nM | < 15 nM | – | O=C1CCC(N2C(=O)c3cccc(NCc4cnc(-c5ccccc5OC5CC5)o4)c3C2=O)C(=O)N1 (stereo not shown) [Example 97, 4-(((2-(2-Cyclopropoxyphenyl)oxazol-5-yl)methyl)amino)-2-(2,6-Dioxopiperidine-3-yl)isoindoline-1,3-dione] | > 120 nM | – | –
1000 to 20000 nM | < 15 nM | – | O=C1CCC(N2C(=O)c3cccc(NCc4cnc(-c5cccc(OC6COC6)c5)o4)c3C2=O)C(=O)N1 (stereo not shown) [Example 100] | > 120 nM | – | –
1000 to 20000 nM | < 15 nM | – | O=C1CCC(N2C(=O)c3cccc(NCc4cnc(-c5ccc(OC6CC6)cc5)s4)c3C2=O)C(=O)N1 (stereo not shown) [Example 103, 4-(((2-(4-Cyclopropoxyphenyl)thiazol-5-yl)methyl)amino)-2-(2,6-Dioxopiperidine-3-yl)isoindoline-1,3-dione] | > 120 nM | – | –
– | – | > 30 nM | O=CN(Cc1cnc(-c2ccc(Cl)cc2)o1)c1cccc2c1C(=O)N(C1CCC(=O)NC1=O)C2=O (stereo not shown) [Example Ctrl-2, N-((2-(4-chlorophenyl)oxazol-5-yl)methyl)-N-(2-(2,6-dioxopiperidin-3-yl)-1,3-dioxoisoindolin-4-yl) formamide, reference compound] | – | > 120 nM | IC50 (MV-4-11 cells; [11]): 1000 to 20000 nM
– | – | > 30 nM | CN(Cc1cnc(-c2ccc(Cl)cc2)o1)c1cccc2c1C(=O)N(C1CCC(=O)NC1=O)C2=O (stereo not shown) [Example Ctrl-3, 4-(((2-(4-chlorophenyl)oxazol-5-yl)methyl)(methyl)amino)-2-(2,6-dioxopiperidin-3-yl)isoindoline-1,3-dione, reference compound] | – | > 120 nM | IC50 (MV-4-11 cells; [11]): 1000 to 20000 nM

Reference: patent US20250270202A1, “SUBSTITUTED 4-AMINOISOINDOLINE COMPOUND, PREPARATION METHOD THEREFOR, PHARMACEUTICAL COMPOSITION THEREOF, AND USE THEREOF” (SHANGHAI INSTITUTE OF MATERIA MEDICA, CHINESE ACADEMY OF …, priority 2022, published 2025)
